Data taken from patent US7923468B2, “1,4-benzothiepin-1,1-dioxide derivatives which are substituted with cyclohexyl groups, method for producing the same, drugs containing said compounds and use thereof” (Sanofi-Aventis Deutschland GmbH, priority 2006, dated 2011).

Biological target: T1, human IBAT (Homo sapiens, UniProt Q12908)
T1 construct: Bases 599 to 1645 correspond to the complete coding region of human IBAT; expressed in transfected cells
T1 sequence (Q12908 1-348): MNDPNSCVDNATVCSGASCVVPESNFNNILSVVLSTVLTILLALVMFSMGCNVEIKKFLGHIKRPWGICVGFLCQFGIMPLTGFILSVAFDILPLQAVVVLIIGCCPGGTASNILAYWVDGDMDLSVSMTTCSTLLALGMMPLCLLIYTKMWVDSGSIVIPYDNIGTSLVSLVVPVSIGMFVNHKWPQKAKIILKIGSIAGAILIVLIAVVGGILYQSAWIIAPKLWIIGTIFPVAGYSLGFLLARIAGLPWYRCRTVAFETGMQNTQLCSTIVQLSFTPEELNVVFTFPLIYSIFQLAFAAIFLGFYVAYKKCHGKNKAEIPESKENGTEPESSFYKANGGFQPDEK
Experiment: In vitro IBAT inhibition assay: uptake of [3H]-taurocholic acid into CHO-hIBAT cells
Type: cell-based
Settings: taurocholic acid 10 μM, 60 min at room temperature, read-out: IC-50 (human IBAT)
Source text: Preparation and Procedure for the In Vitro IBAT Inhibition Assay:
• 1. Cloning of an Expression Vector for Human IBAT
The cDNA (complementary deoxyribonucleic acid) of human IBAT was cloned by standard methods of molecular biology as described for example in Molecular Cloning: A Laboratory Manual by Joseph Sambrook and David Russell, and introduced into the pcDNA1 vector from Invitrogen. […] Bases 599 to 1645 correspond to the complete coding region of human IBAT. • 2. Preparation of a Recombinant Cell Line with Constitutive Expression of Human IBAT
The expression vector for human IBAT was introduced by stable transfection into CHO (chinese hamster ovary) cells. […]
CHO-hIBAT cells were seeded in a concentration of 40 000 cells per well in poly-D-lysine-coated 96-well plates in cell culture medium and cultured for 24 h. […] Finally, 100 μl of scintillation fluid were added to each well, and the radioactivity taken up into the cells was determined in a MicroBeta Scintillation Microplate Reader from Wallac.
The half-maximum inhibitory effect of the test compound (IC50 value, inhibitory concentration 50) was determined in the following way: • 1. […] This is the measurement in the absence of substance, measured in sodium-containing transport assay buffer. • 2. […] This is the measurement in the absence of substance, measured in sodium-free transport assay buffer. • 3. […]

IC50 | Compound
4.2 nM | CCCC[C@]1(CC)CS(=O)(=O)c2ccc(N(C)C)cc2[C@@H](c2cccc(NC(=O)N[C@@H]3[C@@H](O)[C@H](OCc4ccccc4)[C@@H](O)[C@H](OCc4ccccc4)[C@H]3O)c2)[C@H]1O [Example 1]
16 nM | CCCC[C@]1(CC)CS(=O)(=O)c2ccc(N(C)C)cc2[C@@H](c2cccc(NC(=O)N[C@@H]3[C@@H](OS(=O)(=O)O)[C@H](OCc4ccccc4)[C@@H](OS(=O)(=O)O)[C@H](OCc4ccccc4)[C@H]3OS(=O)(=O)O)c2)[C@H]1O [Example 2]
